# Experimental data taken from paper PMC9097638, “Mechanism underlying the carotenoid accumulation in shaded tea leaves” (Food Chemistry: X, 2022).
# Columns and labels:
# [1] = target: T1, CsLCYB (Camellia sinensis, UniProt A0A0B4SX47); assay: E. coli pAC-LYC complementation, HPLC of pigments; assay type: cell-based; settings: lycopene made in the cells; product beta-carotene; 30 °C, 48 h, darkness
# T1 construct: gene lcyb; full-length cDNA subcloned into y2 plasmid; expressed in E. coli DH5alpha carrying pAC-LYC; not purified
# T1 sequence (A0A0B4SX47 1-504): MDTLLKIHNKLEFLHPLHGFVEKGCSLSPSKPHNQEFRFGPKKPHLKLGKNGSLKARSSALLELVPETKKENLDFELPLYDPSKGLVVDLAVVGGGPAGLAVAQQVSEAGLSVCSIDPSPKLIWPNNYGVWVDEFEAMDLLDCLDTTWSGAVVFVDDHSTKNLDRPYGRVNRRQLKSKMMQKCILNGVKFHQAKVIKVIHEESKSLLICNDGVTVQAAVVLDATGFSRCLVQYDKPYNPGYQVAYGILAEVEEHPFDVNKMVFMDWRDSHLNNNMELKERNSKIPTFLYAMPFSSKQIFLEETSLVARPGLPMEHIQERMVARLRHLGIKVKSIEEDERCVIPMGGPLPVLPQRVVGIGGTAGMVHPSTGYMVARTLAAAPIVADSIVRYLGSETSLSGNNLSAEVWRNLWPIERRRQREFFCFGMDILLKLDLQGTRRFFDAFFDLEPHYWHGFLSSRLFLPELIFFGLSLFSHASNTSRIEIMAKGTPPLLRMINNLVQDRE
# [2] = target: T2, CsLCYE (Camellia sinensis, UniProt A0A7J7G232); assay: E. coli pAC-LYC complementation, HPLC of pigments; assay type: cell-based; settings: lycopene made in the cells; product delta-carotene; 30 °C, 48 h, darkness
# T2 construct: gene HYC85_025912; full-length cDNA subcloned into y2 plasmid; expressed in E. coli DH5alpha carrying pAC-LYC; not purified
# T2 sequence (A0A7J7G232 1-531 limits assumed): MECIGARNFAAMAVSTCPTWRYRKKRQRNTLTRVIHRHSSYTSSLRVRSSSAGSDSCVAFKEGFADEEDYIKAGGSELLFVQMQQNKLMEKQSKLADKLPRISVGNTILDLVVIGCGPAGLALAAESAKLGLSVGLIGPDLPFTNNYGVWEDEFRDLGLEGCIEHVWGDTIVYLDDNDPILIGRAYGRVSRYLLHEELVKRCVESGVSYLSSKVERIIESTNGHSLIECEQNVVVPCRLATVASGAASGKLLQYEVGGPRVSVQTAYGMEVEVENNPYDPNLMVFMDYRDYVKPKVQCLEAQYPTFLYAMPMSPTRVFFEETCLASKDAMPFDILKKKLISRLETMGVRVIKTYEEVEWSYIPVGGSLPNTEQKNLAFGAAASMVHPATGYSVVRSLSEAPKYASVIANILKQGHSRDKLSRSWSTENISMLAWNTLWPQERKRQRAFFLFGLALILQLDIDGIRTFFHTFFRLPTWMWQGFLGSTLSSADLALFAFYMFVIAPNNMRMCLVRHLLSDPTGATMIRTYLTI
smiles,measurement,setting,value
CC(C)=CCC/C(C)=C/C=C/C(C)=C/C=C/C(C)=C/C=C/C=C(C)/C=C/C=C(C)/C=C/C=C(\C)CCC=C(C)C [lycopene],"E. coli pAC-LYC complementation, HPLC of pigments",[1],CsLCYB was able to convert the lycopene produced by the cells to β-carotene
same,"E. coli pAC-LYC complementation, HPLC of pigments",[2],"monocyclic δ-carotene and lycopene were detected, implying that CsLCYE is a functional lycopene ε-cyclase"
